Measurements: ChEMBL document CHEMBL5252629, “The protein disulfide isomerase inhibitor 3-methyltoxoflavin inhibits Chikungunya virus” (Bioorg Med Chem, 2023)
≈ marks a conversion by molar mass, not a printed value.

Columns and labels:
Chikungunya virus [1] = assay: Antiviral activity against CHIKV infected in hamster BHK-21 cells assessed as inhibition of viral replication at 20 uM measured after 48 hrs by renilla luciferase assay relative to control; assay type: functional; design: scale not given: the % may be the effect or the level left
Chikungunya virus [2] = assay: Antiviral activity against CHIKV infected in human foreskin fibroblast cells; assay type: functional, organism-based
Chikungunya virus [3] = assay: Antiviral activity against CHIKV-ZsGreen infected in African green monkey Vero incubated for 24 hrs by flow cytometry analysis; assay type: functional, organism-based
Chikungunya virus [4] = assay: Antiviral activity against CHIKV infected in hamster BHK-21 cells assessed as inhibition of viral replication measured after 48 hrs by gaussia luciferase assay; assay type: functional, organism-based; conditions: BHK-21, 48 h
Huh-7 [5] = assay: Cytotoxicity against human Huh-7 cells assessed as reduction in cell viability incubated for 48 hrs by MTT assay; assay type: functional
[6] = Selectivity index, ratio of CC50 for human Huh-7 cells to EC50 for Yellow fever virus 17D; assay type: toxicity; conditions: read-out: Ratio CC50/EC50
[7] = Kinetic solubility of the compound in buffer at pH 7.4 by LCMS analysis; assay type: physicochemical; conditions: read-out: Kinetic_solubility
Chikungunya virus [8] = assay: Antiviral activity against CHIKV S27 infected in Huh-7 cells assessed as reduction in cytopathic effect; assay type: functional, organism-based; conditions: S27, Huh-7
[9] = Metabolic stability in mouse liver microsomes assessed as intrinsic clearance at 100 uM preincubated for 5 mins followed by NADPH addition and measured upto 60 mins by LCMS analysis; assay type: ADME, Microsome; conditions: time < 65 min, read-out: CLH
Chikungunya virus [10] = assay: Antiviral activity against CHIKV S27 infected in Vero 76 cells assessed as reduction in cytopathic effect; assay type: functional; conditions: S27, Vero 76
[11] = Selectivity index, ratio of CC50 for human Huh-7 cells to EC50 for CHIKV S27 infected in Huh-7 cells; assay type: toxicity, cell-based; conditions: read-out: Ratio CC50/EC50
[12] = Inhibition of N-terminal His-tagged human PDI expressed in Escherichia coli BL21 (DE3) incubated for 1 hr
[13] = Apparent permeability of the compound across basolateral side to apical side in human Caco-2 cells assessed as drug recovery; assay type: ADME, cell-based
[14] = Kinetic solubility of the compound in FaSSIF at pH 6.8 by LCMS analysis; assay type: ADME; conditions: read-out: Kinetic_solubility
HepG2 = assay: Cytotoxicity against human HepG2 cells assessed as reduction in cell viability measured after 48 hrs by MTT assay; assay type: functional
Yellow fever virus [15] = assay: Antiviral activity against Yellow fever virus 17D infected in Huh-7 cells assessed as reduction in cytopathic effect by neutral red staining based analysis; assay type: functional, organism-based
[16] = Apparent permeability of the compound across apical side to basolateral side in human Caco-2 cells assessed as drug recovery; assay type: ADME, cell-based
Yellow fever virus [17] = assay: Antiviral activity against Yellow fever virus 17D infected in Huh-7 cells assessed as reduction in cytopathic effect; assay type: functional, organism-based
[18] = Metabolic stability in human liver microsomes assessed as hepatic clearance preincubated for 5 mins followed by NADPH addition and measured after 20 mins by LCMS analysis; assay type: ADME, Microsome; conditions: time 25 min
Chikungunya virus [19] = assay: Antiviral activity against CHIKV S27 infected in Huh-7 cells assessed as reduction in cytopathic effect by neutral red staining based analysis; assay type: functional, organism-based; conditions: S27, Huh-7
[20] = Kinetic solubility of the compound in FaSSGF at pH 1.2 by LCMS analysis; assay type: ADME; conditions: read-out: Kinetic_solubility
[21] = Selectivity index, ratio of CC50 for hamster BHK-21 cells to EC50 for CHIKV infected in hamster BHK-21 cells; assay type: toxicity, cell-based; conditions: read-out: Ratio CC50/EC50
Vero 76 = assay: Cytotoxicity against African green monkey Vero 76 cells assessed as reduction in cell viability incubated for 48 hrs by MTT assay; assay type: toxicity, cell-based; conditions: chlorocebus sabaeus, vero 76, 48 h
Chikungunya virus [22] = assay: Antiviral activity against CHIKV S27 infected in Vero 76 cells assessed as reduction in cytopathic effect by neutral red staining based analysis; assay type: functional, organism-based; conditions: S27, Vero 76
[23] = Selectivity index, ratio of CC50 for human Huh-7 cells to EC50 for Yellow fever virus 17D assessed as reduction in cytopathic effect by neutral red staining based analysis; assay type: toxicity; conditions: read-out: Ratio CC50/EC50
Huh-7 [24] = assay: Cytotoxicity against human Huh-7 cells assessed as reduction in cell viability measured after 48 hrs by MTT assay; assay type: functional
BHK-21 = assay: (§1) Cytotoxicity against hamster BHK-21 cells assessed as reduction in cell viability measured after 48 hrs by MTT assay; assay type: toxicity, cell-based, Mesocricetus auratus; conditions: bhk-21, 48 h
Huh-7 [25] = assay: Cytotoxicity against human Huh-7 cells infected with yellow fever virus assessed as reduction in cell viability incubated for 48 hrs by MTT assay; assay type: functional
[26] = Selectivity index, ratio of CC50 for human Huh-7 cells to EC50 for CHIKV S27 infected in Huh-7 cells assessed as reduction in cytopathic effect by neutral red staining based analysis; assay type: toxicity, cell-based; conditions: read-out: Ratio CC50/EC50
[27] = Apparent permeability of the compound across apical side to basolateral side in human Caco-2 cells; assay type: ADME, cell-based
Chikungunya virus [28] = assay: Antiviral activity against CHIKV infected in hamster BHK-21 cells; assay type: functional, organism-based
Chikungunya virus [29] = assay: Antiviral activity against CHIKV infected in […] Huh-7 cells; assay type: functional, organism-based
[30] = as §1; assay type: toxicity, cell-based, Mesocricetus auratus; conditions: BHK-21 cells
Chikungunya virus [31] = assay: Antiviral activity against CHIKV infected in African green monkey Vero cells; assay type: functional, organism-based

Cc1cc(C)nc(NS(=O)(=O)c2ccc(NC(=O)CN3C(=O)C4CC=CCC4C3=O)cc2)n1 (stereo not drawn)
Activity (Chikungunya virus [1]): 100%

COc1ccc(C(=O)/C=C/c2ccc(O)cc2)c(O)c1CC=C(C)C
Activity (Chikungunya virus [1]): 13.5%

O=C(C1CC1)N1CCN(Cn2sc3ccccc3c2=O)CC1
Activity (Chikungunya virus [1]): 14%

CC(C)n1ncc2c1N=C(O)CC2c1ccc(-c2ccc(C(=O)O)cc2)o1 (stereo not drawn)
Activity (Chikungunya virus [1]): 100%

O=C(O)c1ccc(S(=O)(=O)Nc2ccc(S(=O)(=O)Nc3ccccn3)cc2)cc1
Activity (Chikungunya virus [1]): 100%

O=C1CC(c2ccc(S(=O)(=O)Nc3ccccc3C(=O)Nc3ccc(F)cc3)cc2)CN1 (stereo not drawn)
Activity (Chikungunya virus [1]): 100%

O=C(O)c1nc(=O)[nH]c2ccccc12
IC50 (Chikungunya virus [2]): 23000 nM

Cc1nc(C)c(CN2CCCC(C(=O)Nc3cccc(-n4cnnn4)c3)C2)nc1C (stereo not drawn)
Activity (Chikungunya virus [1]): 100%

NC(=O)C1CCN(c2nc3c(c(=O)[nH]2)C(C(=O)Nc2ccccc2Cl)CC(=O)N3)CC1 (stereo not drawn)
Activity (Chikungunya virus [1]): 140%

Cc1cc([N+](=O)[O-])ccc1-c1ccc(C2N=C(O)c3c(sc4c3CCN(C)C4)N2)o1 (stereo not drawn)
Activity (Chikungunya virus [1]): 100%

OC(CNC1CCN(Cc2ccccc2)CC1)COc1ccccc1 (stereo not drawn)
EC50 (Chikungunya virus [3]): 1600 nM

Cn1c(=O)[nH]c2ccc(S(=O)(=O)NCCCOC34CC5CC(CC(C5)C3)C4)cc2c1=O
Activity (Chikungunya virus [1]): 100%

Cc1nc2c(=O)n(C)c(=O)nc-2n(C)n1
EC50 (Chikungunya virus [4]): 200 nM | CC50 (Huh-7 [5]): 1100 nM | selectivity ratio [6]: 3.2 | solubility kinetic [7]: 400 µM (≈ 82.8 µg/mL) | EC50 (Chikungunya virus [8]): 190 nM | microsomal CLint at 100 µM [9]: 7.4 µL/min/mg | EC90 (Chikungunya virus [10]): > 1700 nM | selectivity ratio [11]: 17 | IC50 [12]: 170 nM | Drug recovery [13]: 93.5% | solubility kinetic [14]: 228 µM (≈ 47.1 µg/mL) | CC50 (HepG2): 11000 nM | EC50 (Yellow fever virus [15]): 420 nM | Drug recovery [16]: 103% | EC50 (Yellow fever virus [17]): 370 nM | CLhep predicted [18]: < 6.1 mL/min/kg | EC50 (Chikungunya virus [19]): < 100 nM | solubility kinetic [20]: 424 µM (≈ 87.7 µg/mL) | Activity (Chikungunya virus [1]): 2% | selectivity ratio [21]: 30.8 | CC50 (Vero 76): 1700 nM | EC50 (Chikungunya virus [22]): > 1700 nM | selectivity ratio [23]: 2.9 | CC50 (Huh-7 [24]): 3200 nM | CC50 (BHK-21): 6200 nM | CC50 (Huh-7 [25]): 1200 nM | selectivity ratio [26]: > 11 | Papp [27]: 17.8 10^-6 cm/s

CC(=O)c1ccc(S(=O)(=O)NC(=O)NC2CCCCC2)cc1 [ACETOHEXAMIDE]
Activity (Chikungunya virus [1]): 100%

CCN(CC)Cc1cc(Nc2ccnc3cc(Cl)ccc23)ccc1O [AMODIAQUINE]
Activity (Chikungunya virus [1]): 19%

CN1[C@@H]2CC[C@H]1C[C@@H](OC(=O)C(CO)c1ccccc1)C2 (stereo partly drawn) [ATROPINE]
Activity (Chikungunya virus [1]): 149.2%

COc1c(O)cc2c(c1O)[C@@H]1O[C@H](CO)[C@@H](O)[C@H](O)[C@H]1OC2=O [BERGENIN]
Activity (Chikungunya virus [1]): 100%

C[C@@H]1C[C@H]2[C@@H]3CCC4=CC(=O)C=C[C@]4(C)[C@@]3(F)[C@@H](O)C[C@]2(C)[C@@]1(O)C(=O)CO [DEXAMETHASONE]
Activity (Chikungunya virus [1]): 70.9%

C=CCc1ccc(OC)cc1 [ESTRAGOLE]
Activity (Chikungunya virus [1]): 100%

C=CCc1ccc(O)c(OC)c1 [EUGENOL]
Activity (Chikungunya virus [1]): 100%

OCCN1CCN(CCCN2c3ccccc3Sc3ccc(C(F)(F)F)cc32)CC1 [FLUPHENAZINE]
Activity (Chikungunya virus [1]): 11.6%

O=C1OC(CN2CCOCC2)CN1/N=C/c1ccc([N+](=O)[O-])o1 (stereo not drawn) [FURALTADONE]
Activity (Chikungunya virus [1]): 20.4%

O=C(CCCN1CCC(O)(c2ccc(Cl)cc2)CC1)c1ccc(F)cc1 [HALOPERIDOL]
Activity (Chikungunya virus [1]): 40.5%

CCC(C)n1ncn(-c2ccc(N3CCN(c4ccc(OCC5COC(Cn6cncn6)(c6ccc(Cl)cc6Cl)O5)cc4)CC3)cc2)c1=O (stereo not drawn) [ITRACONAZOLE]
EC50 (Chikungunya virus [28]): 320 nM

CCCCCc1c2c(cc(O)c1C(=O)O)OC(=O)c1c(cc(OC)cc1C(=O)CCCC)O2 [LOBARIC ACID]
EC50 (Chikungunya virus [29]): 5300 nM

CCCCN(CCCC)CC(O)c1cc(Cl)cc2c1-c1ccc(Cl)cc1/C2=C/c1ccc(Cl)cc1 (stereo not drawn) [LUMEFANTRINE]
Activity (Chikungunya virus [1]): 100%

C=CCN1CC[C@]23c4c5ccc(O)c4O[C@H]2C(=O)CC[C@@]3(O)[C@H]1C5 [NALOXONE]
Activity (Chikungunya virus [1]): 121.5%

CCCCCCCCCCC[C@@H](C[C@@H]1OC(=O)[C@H]1CCCCCC)OC(=O)[C@H](CC(C)C)NC=O [ORLISTAT]
Activity (Chikungunya virus [1]): 48.7%

c1ccc2c(c1)Nc1ccccc1S2 [PHENOTHIAZINE]
Activity (Chikungunya virus [1]): 73.7%

NC(=O)C1(N2CCCCC2)CCN(CCCC(=O)c2ccc(F)cc2)CC1 [PIPAMPERONE]
Activity (Chikungunya virus [1]): 102.9%

Clc1ccc2c(N3CCN(CCCN4CCN(c5ccnc6cc(Cl)ccc56)CC4)CC3)ccnc2c1 [PIPERAQUINE]
Activity (Chikungunya virus [1]): 138.1%

CN(C)CCCN1c2ccccc2Sc2ccccc21 [PROMAZINE]
Activity (Chikungunya virus [1]): 18%

CCN(CC)CCCC(C)Nc1c2ccc(Cl)cc2nc2ccc(OC)cc12 (stereo not drawn) [QUINACRINE]
EC50 (Chikungunya virus [4]): 12000 nM | Activity (Chikungunya virus [1]): 12.5% | selectivity ratio [21]: 1.6 | CC50 at 48 h [30]: 19800 nM

Cc1nnc(C(=O)NC(C)(C)c2nc(C(=O)NCc3ccc(F)cc3)c(O)c(=O)n2C)o1 [RALTEGRAVIR]
Activity (Chikungunya virus [1]): 58.9%

O=P(O)(O)C(O)(Cc1cccnc1)P(=O)(O)O [RISEDRONIC ACID]
Activity (Chikungunya virus [1]): 86.7%

OCc1ccccc1O[C@@H]1O[C@H](CO)[C@@H](O)[C@H](O)[C@H]1O [SALICIN]
Activity (Chikungunya virus [1]): 100%

CCN(CC)CCOc1ccc2c(c1)C(=O)c1cc(OCCN(CC)CC)ccc1-2 [TILORONE]
Activity (Chikungunya virus [1]): 100% | EC50 (Chikungunya virus [31]): 4200 nM

CC(C)=CCC/C(C)=C/Cc1c(O)ccc(C(=O)/C=C/c2ccc(O)cc2)c1O [XANTHOANGELOL]
EC50 (Chikungunya virus [4]): 7100 nM | Activity (Chikungunya virus [1]): 8.4% | selectivity ratio [21]: 1.7 | CC50 at 48 h [30]: 11800 nM

O=C1Cc2cc(CCN3CCN(c4nsc5ccccc45)CC3)c(Cl)cc2N1 [ZIPRASIDONE]
Activity (Chikungunya virus [1]): 101%
